For orientation: inhibition means the drop in the measured response relative to a control, in per cent. A higher inhibition goes with a strong effect. What is called pIC50 is the IC50 on a negative log10 scale, so that one unit is a factor of ten.

pIC50: −log10 of the molar value.

The subject of experiment [1] is Aspergillus niger. Kind of experiment: Antifungal activity against Aspergillus niger at 10 ug/ml by agar plate method. In kind it is functional.
A further experiment relates to Klebsiella pneumoniae. Kind of experiment: Antibacterial activity against Klebsiella pneumoniae by disk diffusion method. In kind it is functional. On the technique in general: A growth-free zone around the sample is the usual read-out of agar diffusion tests.
Experiment [2] concerns Aspergillus flavus. Kind of experiment: Antifungal activity against Aspergillus flavus at 100 ug/ml by agar plate method. In kind it is functional.
A further experiment concerns Staphylococcus aureus. Kind of experiment: Antibacterial activity against Staphylococcus aureus by disk diffusion method. In kind it is functional.
Experiment [3] relates to Aspergillus flavus. Kind of experiment: Antifungal activity against Aspergillus flavus at 10 ug/ml by agar plate method. In kind it is functional.
The subject of experiment [4] is Aspergillus flavus. In words: Antifungal activity against Aspergillus flavus at 20 ug/ml by agar plate method. In kind it is functional.
For experiment [5], the system named is Aspergillus niger. Kind of experiment: Antifungal activity against Aspergillus niger at 20 ug/ml by agar plate method. In kind it is functional.
Experiment [6] has as its system Aspergillus niger. Kind of experiment: Antifungal activity against Aspergillus niger at 100 ug/ml by agar plate method. In kind it is functional.
The next experiment deals with Pseudomonas aeruginosa. In words: Antibacterial activity against Pseudomonas aeruginosa by disk diffusion method. In kind it is functional.
For experiment [7], the system named is MCF7. Kind of experiment: Cytotoxicity against human MCF7 cells. In kind it is functional, cell-based.
Experiment [8] has as its system Aspergillus niger. In words: Antifungal activity against Aspergillus niger at 50 ug/ml by agar plate method. In kind it is functional.
For experiment [9], the system named is Aspergillus flavus. In words: Antifungal activity against Aspergillus flavus at 50 ug/ml by agar plate method. In kind it is functional.
Experiment [10] concerns MCF7. In words: Cytotoxicity against human MCF7 cells assessed as decrease in number of cells relative to control. In kind it is functional, cell-based.

`O=C1Nc2cc3c(-c4ccccc4)c(-c4ccccc4)n(-c4ccc(Cl)cc4)c(=O)c3cc2C(c2ccccc2)N1` (centres undefined): the inhibition at 10 µg/mL with Aspergillus niger [1] turned out to be 50%; with Aspergillus flavus [3], 60%. Moreover, the “inhibition zone (IZ)” value in the experiment on Klebsiella pneumoniae, in the experiment on Staphylococcus aureus and with Pseudomonas aeruginosa was 10 mm each time. The inhibition at 100 µg/mL turned out to be 93.3% in the experiment with Aspergillus flavus [2] and 90% with Aspergillus niger [6]. The inhibition at 20 µg/mL is 76.7% in the experiment with Aspergillus flavus [4] and 70% in the experiment with Aspergillus niger [5]. In addition, in the experiment with MCF7 [7], the pIC50 is 4.59. For the same molecule, the inhibition at 50 µg/mL with Aspergillus niger [8] came out at 80%; in the experiment on Aspergillus flavus [9] it was 83.3%. Besides, in the experiment with MCF7 [10], the Activity entry was “Toxic”.
As for `COc1ccc(-n2c(-c3ccccc3)c(-c3ccccc3)c3cc4c(cc3c2=O)C(c2ccccc2)NC(=O)N4)cc1` (centres undefined), the inhibition at 10 µg/mL with Aspergillus niger [1] and in the experiment with Aspergillus flavus [3] was ≤ 25% in each case. For the same molecule, the “inhibition zone (IZ)” value in the experiment with Klebsiella pneumoniae, in the experiment with Staphylococcus aureus and with Pseudomonas aeruginosa was 6 mm each time. The inhibition at 100 µg/mL with Aspergillus flavus [2] and in the experiment on Aspergillus niger [6] was ≤ 25% throughout. Besides, the inhibition at 20 µg/mL in the experiment on Aspergillus flavus [4] and in the experiment with Aspergillus niger [5] was ≤ 25% throughout. In addition, the pIC50 in the experiment on MCF7 [7] was 4.94. Further, the inhibition at 50 µg/mL in the experiment on Aspergillus niger [8] and with Aspergillus flavus [9] was ≤ 25% throughout. In addition, the Activity entry in the experiment with MCF7 [10] was “Not toxic”.
With `O=C1NCc2cc3c(=O)n(-c4ccc(Cl)cc4)c(-c4ccccc4)c(-c4ccccc4)c3cc2N1`, the inhibition at 10 µg/mL in the experiment on Aspergillus niger [1] and with Aspergillus flavus [3] was ≤ 25% each time. Also, the “inhibition zone (IZ)” value in the experiment on Klebsiella pneumoniae, in the experiment with Staphylococcus aureus and in the experiment with Pseudomonas aeruginosa was 6 mm throughout. The inhibition at 100 µg/mL in the experiment with Aspergillus flavus [2] and with Aspergillus niger [6] was ≤ 25% throughout. For the same molecule, the inhibition at 20 µg/mL in the experiment with Aspergillus flavus [4] and with Aspergillus niger [5] was ≤ 25% throughout. The same molecule gave a pIC50 with MCF7 [7] of 5.43. The inhibition at 50 µg/mL with Aspergillus niger [8] and in the experiment with Aspergillus flavus [9] was ≤ 25% each time. The Activity entry in the experiment with MCF7 [10] is “Not toxic”.
With `O=C1NCc2cc3c(=O)n(-c4ccccc4)c(-c4ccccc4)c(-c4ccccc4)c3cc2N1`, the inhibition at 10 µg/mL in the experiment with Aspergillus niger [1] and in the experiment with Aspergillus flavus [3] was ≤ 25% throughout. Moreover, the “inhibition zone (IZ)” value with Klebsiella pneumoniae, in the experiment on Staphylococcus aureus and in the experiment with Pseudomonas aeruginosa was 6 mm each time. Further, the inhibition at 100 µg/mL with Aspergillus flavus [2] and in the experiment with Aspergillus niger [6] was ≤ 25% throughout. Besides, the inhibition at 20 µg/mL in the experiment on Aspergillus flavus [4] and in the experiment on Aspergillus niger [5] was ≤ 25% throughout. Also, the pIC50 in the experiment with MCF7 [7] is 5.07. The inhibition at 50 µg/mL in the experiment on Aspergillus niger [8] and in the experiment on Aspergillus flavus [9] was ≤ 25% in each case.
On to `O=C1Nc2cc3c(-c4ccccc4)c(-c4ccccc4)n(-c4ccccc4)c(=O)c3cc2C(c2ccccc2)N1` (centres undefined), for which the inhibition at 10 µg/mL in the experiment on Aspergillus niger [1] is 60%; with Aspergillus flavus [3] it was 53.3%. Further, the figures for the “inhibition zone (IZ)” value in the experiment on Klebsiella pneumoniae, with Staphylococcus aureus and in the experiment with Pseudomonas aeruginosa were 6 mm, >14 mm and 10 mm, respectively. The inhibition at 100 µg/mL in the experiment with Aspergillus flavus [2] amounted to 86.7%; in the experiment with Aspergillus niger [6], 95%. Besides, the results for the inhibition at 20 µg/mL in the experiment with Aspergillus flavus [4] and in the experiment with Aspergillus niger [5] were 60% and 75%, respectively. In the experiment on MCF7 [7], this molecule showed a negative logarithm of the IC50 (pIC50) of 5.36. Besides, the inhibition at 50 µg/mL in the experiment with Aspergillus niger [8] came out at 90%; in the experiment on Aspergillus flavus [9] it was 73.3%. Also, in the experiment on MCF7 [10], the Activity result is “Toxic”.
